Reference: patent US9303076B2, “Cell-penetrating peptides and uses thereof” (Hoffmann-La Roche Inc., priority 2010, dated 2016)

Key:
[1] = tested on: MCF-7 human breast cancer cells; assay: cell viability/apoptosis after 24 h exposure to pro-apoptotic peptides and CPP fusions; type: cell-based; details: MCF-7 cells, various concentrations
Procedure: (§1) MCF-7 human breast cancer cells were incubated for 24 h in the presence of various concentrations of NRTN (squares), Nur (circles), and NurNRTN (triangles) peptides. The respective amino acid sequences are given in the bottom panel. The experimental approach for assessing cell viability (and thus induction of apoptosis) was the same as in FIG. 3.
as §1, with “4E-BP1 (circles), TAT4E-BP1” for “NRTN”, “(squares),” for “(squares), Nur (circles),”, “NRTN4E-BP1” for “NurNRTN”, “peptides (top panel). […]” for “peptides.”
Luminescence was analyzed in an InfiniteF200 luminescence reader.
Then, the cells were treated with a luminogenic peptide substrate in order to measure dead-cell protease activity, which is released from cells that have lost membrane integrity. […] The luminescence of this assay therefore represents dead cells. The 96 well plates were then analyzed in an InfiniteF200 luminescence reader.
Despite its proven ability to convert BCL-2 into a pro-apoptotic molecule, addition of the latter peptide (i.e. “Nor/Nur”; SEQ ID NO: 72) to cancer cells, even in high concentrations, is not sufficient to induce apoptosis, as the cellular target protein is located in the cytoplasm, but the peptide per se cannot effectively penetrate through the cell membrane to reach the target. In brief, MCF-7 breast cancer cells were incubated in the presence of this peptide for 24 h.
(§2) Subsequently, it was evaluated whether the NurNRTN fusion peptide is capable of penetrating cellular membranes and thereby induces pro-apoptotic activity within cells. MCF-7 human breast cancer cells were used as a model. The experimental approach was as described above (cf. Example 1). […] This effect was dose dependent: cytotoxicity increased with increasing concentrations of peptide.
as §2, with “NRTN4E-BP1” for “NurNRTN”

recombinant BCL2 = biological target: T1, recombinant BCL2 (Homo sapiens, UniProt P10415); assay: BCL2 binding to bead-immobilized peptides; details: iodoacetyl beads, elution buffer pH 2.8, protein stain
T1 construct: purchased Calbiochem/Merck, Darmstadt, Germany
T1 sequence (P10415 whole entry): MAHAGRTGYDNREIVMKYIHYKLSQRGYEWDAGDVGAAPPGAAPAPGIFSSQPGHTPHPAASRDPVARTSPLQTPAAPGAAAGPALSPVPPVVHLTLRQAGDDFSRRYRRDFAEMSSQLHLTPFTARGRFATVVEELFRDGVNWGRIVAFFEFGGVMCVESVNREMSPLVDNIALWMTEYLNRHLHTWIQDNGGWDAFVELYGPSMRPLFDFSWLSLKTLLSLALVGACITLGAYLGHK
Procedure: In order to determine whether the BCL2 binding properties of the Nur77-derived peptide are maintained in the NurNRTN fusion peptide, the respective NurNRTN and NRTN peptides were coupled to iodoacetyl beads (Pierce Biotechnology, Inc., Rockford, Ill., USA). The beads were incubated with recombinant BCL2 (Calbiochem/Merck, Darmstadt, Germany) and washed with PBS and 0.5 M NaCl, 0.025 NaN3, 0.05% Tween20 to remove unbound protein. Specific binding of BCL2 to the immobilized NurNTRN fusion peptide was determined by eluting bound […] from the beads with elution buffer (pH 2.8), transfer of the eluted fraction to nitrocellulose (Invitrogen Corporation, Carlsbad, Calif., USA), and protein detection by means of the MemCode Reversible Protein Stain Kit (Pierce Biotechnology, Inc., Rockford, Ill., USA).

Sequence: FSRSLHSLLYDLGLRRLRQRRRLRRERVRA (NurNRTN peptide sequence)
- cell viability / induction of apoptosis [1]: remarked cytotoxicity
- BCL2 in eluates from peptide-coated beads (recombinant BCL2): BCL2 can be detected in eluates
